Data on five compounds can be found in US20030176358A1, “METHOD OF TREATING ENVIRONMENTAL STRESS” (priority 1997, published 2003).

In experiment [1] the test system is medial aspect of a human forearm exposed to tobacco smoke or exhaust gas. Put plainly: Testing of suppression of a reduction in the corneum moisture content. The format is in vivo. Particulars: 1.0 wt % aqueous solution applied on human forearm; exposure 10 minutes a day for three months; Corneometer. The protocol: The floating fine particles exposure apparatus shown in FIG. 1 was used to expose a testee's skin to tobacco (with […] of tar and 2.4 mg of nicotine) smoke or exhaust gas fine particles sampled from an exhaust outlet of an automobile for 10 minutes per day for three months consecutively by bringing the medial aspect of the testee's forearm near the discharge port 14 of the floating fine particles of this exposure apparatus 10 (Exposure apparatus 10 uses a three-mouthed flask 11. That is, one of the mouths of the three-mouthed flask is used as an air inlet 12, another is used as an inlet 13 for floating fine particles such as tobacco smoke, and the third mouth is used as a discharge port 14. Floating fine particles such as tobacco smoke flow in through inlet 13 of the floating fine particles and an air flow which flows in through air inlet 12 is used to discharge them through open discharge port 14 of the floating fine particles. An object which is brought close to this discharge port 14 can be exposed to the floating fine particles such as tobacco smoke. Changes in the corneum moisture content after consecutive exposure to tobacco smoke or exhaust gas fine particles for the aforementioned three months were analyzed by using a Corneometer™ (Courage and Khazaka, Germany). The corneum moisture content is one of the indicators of skin conditions and is known to be an indicator which allows determination of the amount of moisture in the corneum. That is, in the case of rough skin, the corneum moisture content is smaller. A higher value of the corneum moisture content indicates better skin conditions. […] For each of these, the blank value of the corneum moisture content was measured. For the controls, “the group with no drug applied” and “the non-exposure group”, which was not exposed to tobacco smoke or exhaust gas, were used. Using the tobacco smoke exposure apparatus shown in the aforementioned FIG. 1, the medial aspect of the human forearm onto which the aforementioned ingredients had been applied was exposed to tobacco smoke or exhaust gas for 10 minutes a day for three months and the corneum moisture content of that area was investigated.

The subject of experiment [2] is medial aspect of a human forearm exposed to tobacco smoke. Put plainly: Testing of suppression of oxidation (ultraweak chemiluminescence of the skin). Particulars: 1.0 wt % solution applied on human forearm; tobacco smoke 90 seconds; measured for 30 minutes from 60 seconds after exposure. The format is in vivo. The source says:
It is known that a phenomenon called “ultraweak chemiluminescence: CL” occurs on the skin of a living body including a human. This ultraweak chemiluminescence is known to occur in the radiation deactivation process of electrons from the excited state to the ground state.
For example, radicals such as singlet oxygen, excited carbonic acid, excited carbonyl, etc. are known to be this luminescent substance in a living body. Therefore, if this ultraweak chemiluminescence can be monitored, it is possible to adequately identify the oxidation reactions occurring on the human skin.
An 1.0 wt % aqueous solution of each of 1) thiotaurine (from Sogo Pharmaceutical Co., Ltd.), 2) hypotaurine (from Sogo Pharmaceutical Co., Ltd.), 3) glutathione, 4) tannin and 5) vitamin C derivative [L-ascorbic acid phosphate (magnesium)] was applied on the medial aspect of a human forearm. For each of these, a chemiluminescence detector (model OX-7 from Tohoku Electronic Industries Co., Ltd.) whose sample chamber had been modified for a human arm was used to carry out a 30 minute measurement to obtain the blank value of the ultraweak chemiluminescence for each of them. For the control, a solution of 1.0 wt % α-tocopherol was used.
In the same manner as in the aforementioned environmental stress suppression testing which used the corneum moisture content of the skin as the indicator, the medial aspect of a human forearm was brought close to the floating fine particles exposure apparatus shown in FIG. 1 to expose the medial aspect of the forearm, onto which the aforementioned ingredient(s) had been applied, to tobacco smoke for 90 seconds. Sixty seconds after exposure, the ultraweak chemiluminescence of the exposed part was measured for 30 minutes in the same manner as described above. […]

As for `N[C@@H](CCC(=O)N[C@@H](CS)C(=O)NCC(=O)O)C(=O)O` [glutathione], the “suppression of the aggravation of skin conditions (reduction in the corneum moisture content) due to exposure to tobacco smoke or exhaust gas” value in experiment [1] is reported as “effectively prevented”. Further, the “reduction of the ultraweak chemiluminescence (oxidation reactions) on the skin” value (shortened to “reduction … on the skin”) in experiment [2] is given as “particularly significant”.

As for `NCCS(=O)O` [hypotaurine], the “suppression of the aggravation of skin conditions (reduction in the corneum moisture content) due to exposure to tobacco smoke or exhaust gas” value in experiment [1] was “effectively prevented”. Regarding `NCCS(=O)(O)=S` [thiotaurine], the “suppression of the aggravation of skin conditions (reduction in the corneum moisture content) due to exposure to tobacco smoke or exhaust gas” value in experiment [1] is listed as “effectively prevented”. In addition, the “reduction … on the skin” value in experiment [2] is on record as “particularly significant”. With `Cc1c(C)c2c(c(C)c1O)CC[C@@](C)(CCC[C@H](C)CCC[C@H](C)CCCC(C)C)O2` [α-tocopherol, reference compound], the “suppression of the aggravation of skin conditions (reduction in the corneum moisture content) due to exposure to tobacco smoke or exhaust gas” value in experiment [1] is on record as “could only minimally suppress”. The “reduction … on the skin” value in experiment [2] is on record as “could not effectively suppress”. For `CC1=C(/C=C/C(C)=C/C=C/C(C)=C/C=C/C=C(C)/C=C/C=C(C)/C=C/C2=C(C)CCCC2(C)C)C(C)(C)CCC1` [β-carotene, reference compound], the “suppression of the aggravation of skin conditions (reduction in the corneum moisture content) due to exposure to tobacco smoke or exhaust gas” value in experiment [1] is recorded as “could only minimally suppress”.
